# Experimental data reported in patent US10927117B2 (BEIGENE SWITZERLAND GMBH, priority 2016, dated 2021).
# How the values were obtained:
# [1] = test system: rituximab-induced antigen-dependent cell-mediated cytotoxicity (ADCC); test: Rituximab-induced ADCC inhibition; type: cell-based
# [2] = Tissue distribution; type: in vivo
# [3] = test system: 7 major human CYPs
# [4] = test system: Chronic Lymphocytic Leukemia and Small Lymphocytic Lymphoma (CLL/SLL); test: Phase 1 trial in patients with CLL/SLL; type: in vivo, human
# Protocol: The dose-escalation component of the trail tested total daily doses between 40 mg and 320 mg, and the ongoing dose-expansion component is testing doses of 160 mg twice a day (BID) or 320 mg once a day (QD). As of Mar. 31, 2017, 69 patients with CLL or SLL (18 TN, […]) were enrolled in the study.
# [5] = Pharmacokinetics in dogs (LC-MS/MS); type: in vivo, beagle dogs
# [6] = test system: TMD8 cells (ABC type diffuse large B-cell lymphoma cell line); test: Tumor cell proliferation, CellTiter-Glo, TMD-8; type: cell-based; settings: Homo sapiens, TMD8, 144 h; TMD-8 cell line, DLBCL(ABC); 6-day exposure; mean of 3 independent assays; read-out: Potency IC50
# Protocol: (§1) 3 MCL cell lines (Rec-1, Mino and JEKO-1) and an ABC type diffuse large B-cell lymphoma cell line (TMD8) were used in this study. Cell lines were maintained in RPMI-1640 supplemented with 10% fetal bovine serum/FBS (Thermo Scientific); 100 units/ml penicillin (Gibco) and 0.1 mg/ml streptomycin (Gibco) and kept at 37° C. in a humidified atmosphere of 5% CO2 in air. Cell lines were reinstated from frozen stocks that were laid down within 30 passages from the original cells purchased.
# (§2) The growth-inhibitory activity of compounds in Rec-1, Mino, JEKO-1 and TMD-8 cells was determined using CellTiter-Glo luminescent cell viability assay (Promega). The number of cells seeded per well of a 96-well plate was optimized for each cell line to ensure logarithmic growth over 6 days treatment period. Cells were treated in triplicate with a 10-point dilution series. […] Mixture was mixed on an orbital shaker for 2 minutes to allow cell lysis, followed by 10 minutes incubation at room temperature to allow development and stabilization of luminescent signal, which corresponded to quantity of ATP and thus the quantity of metabolically active cells. Luminescent signal was measured using PHERAstar FS reader (BMG Labtech). IC50 values for cell viability were determined with GraphPad Prism software and were the mean of 3 independent assays.
# [7] = test system: Rec-1 cells (MCL cell line); test: Tumor cell proliferation, CellTiter-Glo, Rec-1; type: cell-based; settings: Homo sapiens, Rec1, 144 h, Rec-1 cell line, 6-day exposure, mean of 3 independent assays, read-out: Potency IC50
# Protocol: as §1, §2
# [8] = biological target: T1, TEC (Homo sapiens, UniProt P42680); test: IC50 determination of TEC (TR-FRET); type: biochemical; settings: at KM of ATP, 1-hour pre-incubation
# T1 sequence (P42680 1-631): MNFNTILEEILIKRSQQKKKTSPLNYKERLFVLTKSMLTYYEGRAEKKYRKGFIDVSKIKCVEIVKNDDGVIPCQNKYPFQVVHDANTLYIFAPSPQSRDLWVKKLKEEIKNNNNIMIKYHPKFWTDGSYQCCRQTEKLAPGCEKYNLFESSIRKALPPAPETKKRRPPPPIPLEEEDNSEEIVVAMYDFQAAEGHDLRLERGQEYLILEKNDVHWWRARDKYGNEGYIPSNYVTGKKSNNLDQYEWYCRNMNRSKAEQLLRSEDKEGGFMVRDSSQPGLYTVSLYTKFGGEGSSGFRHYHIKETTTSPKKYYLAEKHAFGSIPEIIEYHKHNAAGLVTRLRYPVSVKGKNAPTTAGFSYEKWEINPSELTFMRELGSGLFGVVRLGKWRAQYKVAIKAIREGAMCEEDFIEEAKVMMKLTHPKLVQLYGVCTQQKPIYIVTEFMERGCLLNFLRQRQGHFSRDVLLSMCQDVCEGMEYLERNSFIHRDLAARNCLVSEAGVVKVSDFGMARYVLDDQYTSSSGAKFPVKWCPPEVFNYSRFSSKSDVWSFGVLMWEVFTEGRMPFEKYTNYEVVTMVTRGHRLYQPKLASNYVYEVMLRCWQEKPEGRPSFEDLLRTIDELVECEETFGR
# [9] = Pharmacokinetics study in mouse; type: in vivo; settings: ICR mice, oral gavage
# Protocol: For time course study, mice were randomly assigned into 7 groups with 4 mice per group. […] For dose dependency study, mice were randomly assigned into 9 groups with 4 mice per group. […] Treatments were administered by oral gavage (p.o.) in a volume of 10 ml/kg body weight. Body weight was assessed immediately before dosing and volume dosed was adjusted accordingly.
# PK SAMPLE PREPARATION: For time course study, blood samples (50 μL per mouse) were collected from the retro-orbital sinus under isoflurane/oxygen anesthesia at 15 min after dosing (this group of mice were also used for 24 hr time point) or heart puncture after euthanization for the other time points. For dose dependency study, blood samples were collected from the retro-orbital sinus under isoflurane/oxygen anesthesia at 30 minutes after dosing. Plasma was collected by centrifugation at 3,000 g for 10 minutes and was kept frozen in −80° C. until analysis.
# PK Analysis: maximum plasma concentration (Cmax) and time to reach Cmax (Tmax) were taken directly from the plasma concentration versus time profiles.
# [10] = test system: JEKO-1 cells (MCL cell line); test: Tumor cell proliferation, CellTiter-Glo, JEKO-1; type: cell-based; settings: Homo sapiens, 144 h, JEKO-1 cell line, 6-day exposure, read-out: Potency IC50
# Protocol: as §1, §2
# [11] = CLL/SLL, adverse event of interest
compound,measurement,setting,value
"C=CC(=O)N1CCC([C@@H]2CCNc3c(C(N)=O)c(-c4ccc(Oc5ccccc5)cc4)nn32)CC1 [Compound 1, (S)-7-(1-acryloylpiperidin-4-yl)-2-(4-phenoxyphenyl)-4,5,6,7-tetra-hydropyrazolo[1,5-a]pyrimidine-3-carboxamide]",inhibition of rituximab-induced ADCC compared with ibrutinib,[1],significantly less inhibition
same,level in brain tissue,[2]; brain,low in brain tissue
same,tissue distribution,[2]; various tissues,widely distributed to various tissues
same,time-dependent CYP inhibition potential,[3],unlikely to be time dependent CYP inhibitors
same,AE arthralgia,[4]; CLL/SLL,12%
same,AE cough,[4]; CLL/SLL,23%
same,AE diarrhea,[4]; CLL/SLL,22%
same,AE fatigue,[4]; CLL/SLL,29%
same,AE headache,[4]; CLL/SLL,19%
same,AE hematuria,[4]; CLL/SLL,15%
same,AE muscle spasms,[4]; CLL/SLL,12%
same,AE nausea,[4]; CLL/SLL,13%
same,AE rash,[4]; CLL/SLL,13%
same,AE upper respiratory tract infection,[4]; CLL/SLL,28%
same,AE urinary tract infection,[4]; CLL/SLL,12%
same,number of serious AEs (SAEs),[4]; CLL/SLL,18
same,patients with serious AEs,[4]; CLL/SLL,13
same,overall response rate (ORR),"[4]; CLL/SLL, 66 evaluable patients, median follow-up 10.5 months",94%
same,PRs with lymphocytosis (PR-Ls),"[4]; CLL/SLL, 66 patients",9%
same,complete responses (CRs),"[4]; CLL/SLL, 66 patients",3%
same,partial responses (PRs),"[4]; CLL/SLL, 66 patients",82%
same,grade 2 atrial fibrillation,[4]; [11],one case
same,grade 2 diarrhea,[4]; [11],one case
same,AE petechiae/purpura/contusion,"[4]; CLL/SLL, any attribution",46%
same,patients who discontinued treatment due to an AE,"[4]; CLL/SLL, grade 2 pleural effusion",one patient
same,treatment discontinuation rate,"[4]; CLL/SLL, median follow-up 10.5 months",3%
same,major bleeding event,"[4]; CLL/SLL, subcutaneous hemorrhage",one case of grade 3 purpura
same,CRs,"[4]; R/R CLL/SLL, 50 patients",2%
same,PR-Ls,"[4]; R/R CLL/SLL, 50 patients",8%
same,PRs,"[4]; R/R CLL/SLL, 50 patients",82%
same,stable disease,"[4]; R/R CLL/SLL, 50 patients",6%
same,ORR,"[4]; R/R CLL/SLL, 50 patients, median follow-up 14.0 months",92%
same,CRs,"[4]; TN CLL/SLL, 16 patients",6%
same,PR-Ls,"[4]; TN CLL/SLL, 16 patients",13%
same,PRs,"[4]; TN CLL/SLL, 16 patients",81%
same,ORR,"[4]; TN CLL/SLL, 16 patients, median follow-up 7.6 months",100%
"C=CC(=O)N1CCC([C@@H]2CCNc3c(C(N)=O)c(-c4ccc(Oc5ccccc5)cc4)nn32)CC1 [Crystalline Form A, (S)-7-(1-acryloylpiperidin-4-yl)-2-(4-phenoxyphenyl)-4,5,6,7-tetra-hydropyrazolo[1,5-a]pyrimidine-3-carboxamide]",accumulation following multiple oral dosing,[5],no accumulation
same,bioavailability (F %),[5],reasonably good bioavailability
same,clearance (CL),[5],moderate clearance
same,linearity of PK over the dose range,[5],linear PK over the dose range
same,IC50,[6],0.54 nM
same,IC50,[7],0.36 nM
same,IC50,[8],1.9 nM
same,absorption and elimination,[9],quickly absorbed and eliminated
same,IC50,[10],20 nM
